The source of these data is US10730874B2 (Shire Human Genetic Therapies, Inc., priority 2018, dated 2020).

Sequence of human activated kallikrein enzyme (plasma kallikrein) (P03952 391-638): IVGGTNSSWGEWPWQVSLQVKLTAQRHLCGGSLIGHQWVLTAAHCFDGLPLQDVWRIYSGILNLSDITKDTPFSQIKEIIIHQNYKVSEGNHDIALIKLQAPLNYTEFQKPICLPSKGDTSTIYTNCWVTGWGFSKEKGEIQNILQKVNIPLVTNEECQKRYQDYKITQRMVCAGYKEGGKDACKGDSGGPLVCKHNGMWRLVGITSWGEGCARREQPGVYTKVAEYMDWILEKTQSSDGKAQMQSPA
Sequence of human activated kallikrein enzyme (plasma kallikrein) (P03952 20-390 partner): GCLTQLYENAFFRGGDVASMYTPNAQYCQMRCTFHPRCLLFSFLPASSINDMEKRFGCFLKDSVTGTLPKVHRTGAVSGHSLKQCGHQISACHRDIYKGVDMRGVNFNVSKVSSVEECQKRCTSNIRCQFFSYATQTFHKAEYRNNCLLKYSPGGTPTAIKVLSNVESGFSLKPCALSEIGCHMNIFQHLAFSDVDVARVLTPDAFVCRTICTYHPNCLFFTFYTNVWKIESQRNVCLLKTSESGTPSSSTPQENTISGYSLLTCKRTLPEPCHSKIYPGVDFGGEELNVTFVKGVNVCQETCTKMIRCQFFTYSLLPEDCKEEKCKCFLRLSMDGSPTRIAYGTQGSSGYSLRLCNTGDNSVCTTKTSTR

In this assay the target is human activated kallikrein enzyme (plasma kallikrein) (Homo sapiens (Human), UniProt P03952). The assay can be described thus: Inhibition of human activated plasma kallikrein, fluorogenic peptide substrate assay, 500 pM enzyme format. It is filed as biochemical. The settings on record: 500 pM activated kallikrein enzyme, 300 uM Pro-Phe-Arg-7-amido-4-methylcoumarin substrate, 30 min preincubation, 10 min at RT; read-out: Primary Dose Response Assay: Average EC50. The essentials:
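Buffer 20 mM Tris pH 7.5, EDTA, NaCl, PEG-400, Triton X-100; 300 uM Pro-Phe-Arg-AMC; enzyme–inhibitor preincubation 30 min RT. Format one: 500 pM kallikrein, 10 min RT reaction; format two: 5 pM kallikrein, 18 h RT reaction. Fluorescence read at 460 nm (380 nm excitation).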
In general, EC50 refers to the concentration giving half of the maximal effect. As to `Cc1c(C)n(C)c2ccc(Cn3cc(C(=O)NCc4ncn5ccc(Cl)c(F)c45)nn3)cc12` [Example I-269, N-((7-chloro-8-fluoroimidazo[1,5-a]pyridin-1-yl)methyl)-1-((1,2,3-trimethyl-1H-indol-5-yl)methyl)-1H-1,2,3-triazole-4-carboxamide], the EC50 was in the range of 1 to 10 nM.
For `COC(=O)c1cc(C(=O)NCc2ncn3ccc(Cl)c(F)c23)cn1Cc1cn2cc(C3CC3)ccc2n1` [Example I-270a, methyl 4-(((7-chloro-8-fluoroimidazo[1,5-a]pyridin-1-yl)methyl)carbamoyl)-1-((6-cyclopropylimidazo[1,2-a]pyridin-2-yl)methyl)-1H-pyrrole-2-carboxylate], the EC50 lay in the range of 1 to 10 nM.
On to `O=C(NCc1ncn2ccc(Cl)c(F)c12)c1cc(C(=O)O)n(Cc2cn3cc(C4CC4)ccc3n2)c1` [Example I-270b, 4-(((7-chloro-8-fluoroimidazo[1,5-a]pyridin-1-yl)methyl)carbamoyl)-1-((6-cyclopropylimidazo[1,2-a]pyridin-2-yl)methyl)-1H-pyrrole-2-carboxylic acid], for which the EC50 was under 1 nM.
In the case of `O=C(NCc1ncn2ccc(Cl)c(F)c12)c1cn(Cc2cn3cc(C4CC4)ccc3n2)cn1` [Example I-271, N-((7-chloro-8-fluoroimidazo[1,5-a]pyridin-1-yl)methyl)-1-((6-cyclopropylimidazo[1,2-a]pyridin-2-yl)methyl)-1H-imidazole-4-carboxamide] it was under 1 nM; in that of `COC(=O)c1c(Cn2cc(C(=O)NCc3ncn4ccc(Cl)c(F)c34)nn2)[nH]c2cc(C3CC3)ccc12` [Example I-272, methyl 2-((4-(((7-chloro-8-fluoroimidazo[1,5-a]pyridin-1-yl)methyl)carbamoyl)-1H-1,2,3-triazol-1-yl)methyl)-6-cyclopropyl-1H-indole-3-carboxylate], under 1 nM; in that of `N#Cc1cc(Cn2cc(C(=O)NCc3ncn4ccc(Cl)c(F)c34)nn2)cc2cc(C3CC3)cnc12` [Example I-273, N-((7-chloro-8-fluoroimidazo[1,5-a]pyridin-1-yl)methyl)-1-((8-cyano-3-cyclopropylquinolin-6-yl)methyl)-1H-1,2,3-triazole-4-carboxamide], 1 to 10 nM.
With `O=C(NCc1ncn2ccc(Cl)c(F)c12)c1cn(Cc2[nH]c3cc(C4CC4)ccc3c2C(=O)O)nn1` [Example I-274, 2-((4-(((7-chloro-8-fluoroimidazo[1,5-a]pyridin-1-yl)methyl)carbamoyl)-1H-1,2,3-triazol-1-yl)methyl)-6-cyclopropyl-1H-indole-3-carboxylic acid], the EC50 fell in the range of 100 to 2000 nM.
Take `NC(=O)c1cc(Cn2cc(C(=O)NCc3ncn4ccc(Cl)c(F)c34)nn2)cc2cc(C3CC3)cnc12` [Example I-275, 6-((4-(((7-chloro-8-fluoroimidazo[1,5-a]pyridin-1-yl)methyl)carbamoyl)-1H-1,2,3-triazol-1-yl)methyl)-3-cyclopropylquinoline-8-carboxamide]: the EC50 fell in the range of 10 to 100 nM.
As to `O=C(NCc1ncn2ccc(Cl)c(F)c12)c1ccn(Cc2cn3cc(C4CC4)ccc3n2)c1` [Example I-276, N-((7-chloro-8-fluoroimidazo[1,5-a]pyridin-1-yl)methyl)-1-((6-cyclopropylimidazo[1,2-a]pyridin-2-yl)methyl)-1H-pyrrole-3-carboxamide], the EC50 is under 1 nM.
With `O=C(NCc1ncn2cc(F)c(Cl)cc12)c1cn(Cc2cn3cc(C4CC4)ccc3n2)nn1` [Example I-277, N-((7-chloro-6-fluoroimidazo[1,5-a]pyridin-1-yl)methyl)-1-((6-cyclopropylimidazo[1,2-a]pyridin-2-yl)methyl)-1H-1,2,3-triazole-4-carboxamide], the EC50 is 10 to 100 nM.
With `CC(NC(=O)c1cn(C(C)c2cn3cc(C4CC4)ccc3n2)nn1)c1ncn2ccc(Cl)c(F)c12` (stereo not drawn) [Example I-278, N-(1-(7-chloro-8-fluoroimidazo[1,5-a]pyridin-1-yl)ethyl)-1-(1-(6-cyclopropylimidazo[1,2-a]pyridin-2-yl)ethyl)-1H-1,2,3-triazole-4-carboxamide], the EC50 was 100 to 2000 nM.
As to `O=C(NCc1ncn2ccc(Cl)c(F)c12)c1cn(Cc2cn3cc(C4CC4)cc(C(O)C4COC4)c3n2)nn1` (stereo not drawn) [Example I-279, N-((7-chloro-8-fluoroimidazo[1,5-a]pyridin-1-yl)methyl)-1-((6-cyclopropyl-8-(hydroxy(oxetan-3-yl)methyl)imidazo[1,2-a]pyridin-2-yl)methyl)-1H-1,2,3-triazole-4-carboxamide], the EC50 is under 1 nM.
Turning to `CC(NC(=O)c1cn(Cc2cn3cc(C4CC4)cc(C(O)C4COC4)c3n2)nn1)c1ncn2ccc(Cl)c(F)c12` (stereo not drawn) [Example I-280, N-(1-(7-chloro-8-fluoroimidazo[1,5-a]pyridin-1-yl)ethyl)-1-((6-cyclopropyl-8-(hydroxy(oxetan-3-yl)methyl)imidazo[1,2-a]pyridin-2-yl)methyl)-1H-1,2,3-triazole-4-carboxamide], the EC50 lay in the range of 10 to 100 nM.
Consider `O=C(NCc1ncn2ccc(Cl)c(F)c12)c1cn(Cc2cn3cc(C4CC4)cc(CS(=O)(=O)NCC(F)(F)F)c3n2)nn1` [Example I-281, N-((7-chloro-8-fluoroimidazo[1,5-a]pyridin-1-yl)methyl)-1-((6-cyclopropyl-8-((N-(2,2,2-trifluoroethyl)sulfamoyl)methyl)imidazo[1,2-a]pyridin-2-yl)methyl)-1H-1,2,3-triazole-4-carboxamide], for which the EC50 was under 1 nM.
As for `O=C(NCc1ncn2ccc(Cl)c(F)c12)c1cnn(Cc2nc3ccccn3n2)c1` [Example I-282, 1-([1,2,4]triazolo[1,5-a]pyridin-2-ylmethyl)-N-((7-chloro-8-fluoroimidazo[1,5-a]pyridin-1-yl)methyl)-1H-pyrazole-4-carboxamide], the EC50 lay in the range of 100 to 2000 nM.
Turning to `O=C(NCc1ncn2ccc(Cl)c(F)c12)c1nnn(Cc2cn3cc(C4CC4)ccc3n2)n1` [Example I-283, N-((7-chloro-8-fluoroimidazo[1,5-a]pyridin-1-yl)methyl)-2-((6-cyclopropylimidazo[1,2-a]pyridin-2-yl)methyl)-2H-tetrazole-5-carboxamide], the EC50 is under 1 nM.
As to `O=C(NCc1ncn2ccc(Cl)c(F)c12)c1cnn(Cc2cn3ccccc3n2)c1` [Example I-284, N-((7-chloro-8-fluoroimidazo[1,5-a]pyridin-1-yl)methyl)-1-(imidazo[1,2-a]pyridin-2-ylmethyl)-1H-pyrazole-4-carboxamide], the concentration for a half-maximal effect (EC50) was 10 to 100 nM.
On to `O=C(NCc1ncn2ccc(Cl)c(F)c12)c1cnn(Cc2cn3ncccc3n2)c1` [Example I-285, N-((7-chloro-8-fluoroimidazo[1,5-a]pyridin-1-yl)methyl)-1-(imidazo[1,2-b]pyridazin-2-ylmethyl)-1H-pyrazole-4-carboxamide], for which the 50% effective concentration (EC50) was 10 to 100 nM.
`O=C(NCc1ncn2ccc(Cl)c(F)c12)c1cn(Cc2nc3ccccn3n2)nn1` [Example I-287, 1-([1,2,4]triazolo[1,5-a]pyridin-2-ylmethyl)-N-((7-chloro-8-fluoroimidazo[1,5-a]pyridin-1-yl)methyl)-1H-1,2,3-triazole-4-carboxamide]: the EC50 was in the range of 100 to 2000 nM.
Take `O=C(NCc1ncn2ccc(Cl)c(F)c12)c1cn(Cc2cn3nc(C4CC4)ccc3n2)cn1` [Example I-288, N-((7-chloro-8-fluoroimidazo[1,5-a]pyridin-1-yl)methyl)-1-((6-cyclopropylimidazo[1,2-b]pyridazin-2-yl)methyl)-1H-imidazole-4-carboxamide]: the EC50 was under 1 nM.
In the case of `O=C(NCc1ncn2ccc(Cl)c(F)c12)c1nnn(Cc2cn3nc(C4CC4)ccc3n2)n1` [Example I-289, N-((7-chloro-8-fluoroimidazo[1,5-a]pyridin-1-yl)methyl)-2-((6-cyclopropylimidazo[1,2-b]pyridazin-2-yl)methyl)-2H-tetrazole-5-carboxamide] it was under 1 nM; in that of `O=C(NCc1ncn2ccc(Cl)c(F)c12)c1cn(Cc2cn3ncccc3n2)nn1` [Example I-290, N-((7-chloro-8-fluoroimidazo[1,5-a]pyridin-1-yl)methyl)-1-(imidazo[1,2-b]pyridazin-2-ylmethyl)-1H-1,2,3-triazole-4-carboxamide], 10 to 100 nM; in that of `O=C(NCc1ncn2ccc(Cl)c(F)c12)c1cn(Cc2cn3ncccc3n2)cn1` [Example I-291, N-((7-chloro-8-fluoroimidazo[1,5-a]pyridin-1-yl)methyl)-1-(imidazo[1,2-b]pyridazin-2-ylmethyl)-1H-imidazole-4-carboxamide], 10 to 100 nM.
For the molecule `O=C(NCc1ncn2ccc(Cl)c(F)c12)c1cnn(Cc2ccc3nccnc3c2)c1` [Example I-293, N-((7-chloro-8-fluoroimidazo[1,5-a]pyridin-1-yl)methyl)-1-(quinoxalin-6-ylmethyl)-1H-pyrazole-4-carboxamide], the EC50 lay within 10 to 100 nM.
In the case of `O=C(NCc1ncn2ccc(Cl)c(F)c12)c1cn(Cc2cn3nccc(-n4cnnc4)c3n2)nn1` [Example I-294, 1-((8-(4H-1,2,4-triazol-4-yl)imidazo[1,2-b]pyridazin-2-yl)methyl)-N-((7-chloro-8-fluoroimidazo[1,5-a]pyridin-1-yl)methyl)-1H-1,2,3-triazole-4-carboxamide], the EC50 is 10 to 100 nM.
`O=C(NCc1ncn2ccc(Cl)c(F)c12)c1cn(Cc2cn3cc(C4CC4)cc(CN4CCCC4)c3n2)nn1` [Example I-295, N-((7-chloro-8-fluoroimidazo[1,5-a]pyridin-1-yl)methyl)-1-((6-cyclopropyl-8-(pyrrolidin-1-ylmethyl)imidazo[1,2-a]pyridin-2-yl)methyl)-1H-1,2,3-triazole-4-carboxamide]: the 50% effective concentration (EC50) is under 1 nM.
On to `O=C(NCc1ncn2ccc(Cl)c(F)c12)c1cn(Cc2cn3nccc(CC4COC4)c3n2)nn1` [Example I-296, N-((7-chloro-8-fluoroimidazo[1,5-a]pyridin-1-yl)methyl)-1-((8-(oxetan-3-ylmethyl)imidazo[1,2-b]pyridazin-2-yl)methyl)-1H-1,2,3-triazole-4-carboxamide], for which the EC50 was in the range of 10 to 100 nM.
